The record followed here is publication PMC5292991, “Drug trapping in hERG K^+ channels: (not) a matter of drug size?” (Medchemcomm, 2015).

In this data set the target is T1, hERG K+ channel (Kv11.1) (Homo sapiens, UniProt Q12809).
T1 construct: gene KCNH2
In words: two-microelectrode voltage clamp, hERG tail current inhibition in Xenopus oocytes; alanine mutants Y652A and F656A reduce block. Format: cell-based.

T1 sequence (Q12809 whole entry): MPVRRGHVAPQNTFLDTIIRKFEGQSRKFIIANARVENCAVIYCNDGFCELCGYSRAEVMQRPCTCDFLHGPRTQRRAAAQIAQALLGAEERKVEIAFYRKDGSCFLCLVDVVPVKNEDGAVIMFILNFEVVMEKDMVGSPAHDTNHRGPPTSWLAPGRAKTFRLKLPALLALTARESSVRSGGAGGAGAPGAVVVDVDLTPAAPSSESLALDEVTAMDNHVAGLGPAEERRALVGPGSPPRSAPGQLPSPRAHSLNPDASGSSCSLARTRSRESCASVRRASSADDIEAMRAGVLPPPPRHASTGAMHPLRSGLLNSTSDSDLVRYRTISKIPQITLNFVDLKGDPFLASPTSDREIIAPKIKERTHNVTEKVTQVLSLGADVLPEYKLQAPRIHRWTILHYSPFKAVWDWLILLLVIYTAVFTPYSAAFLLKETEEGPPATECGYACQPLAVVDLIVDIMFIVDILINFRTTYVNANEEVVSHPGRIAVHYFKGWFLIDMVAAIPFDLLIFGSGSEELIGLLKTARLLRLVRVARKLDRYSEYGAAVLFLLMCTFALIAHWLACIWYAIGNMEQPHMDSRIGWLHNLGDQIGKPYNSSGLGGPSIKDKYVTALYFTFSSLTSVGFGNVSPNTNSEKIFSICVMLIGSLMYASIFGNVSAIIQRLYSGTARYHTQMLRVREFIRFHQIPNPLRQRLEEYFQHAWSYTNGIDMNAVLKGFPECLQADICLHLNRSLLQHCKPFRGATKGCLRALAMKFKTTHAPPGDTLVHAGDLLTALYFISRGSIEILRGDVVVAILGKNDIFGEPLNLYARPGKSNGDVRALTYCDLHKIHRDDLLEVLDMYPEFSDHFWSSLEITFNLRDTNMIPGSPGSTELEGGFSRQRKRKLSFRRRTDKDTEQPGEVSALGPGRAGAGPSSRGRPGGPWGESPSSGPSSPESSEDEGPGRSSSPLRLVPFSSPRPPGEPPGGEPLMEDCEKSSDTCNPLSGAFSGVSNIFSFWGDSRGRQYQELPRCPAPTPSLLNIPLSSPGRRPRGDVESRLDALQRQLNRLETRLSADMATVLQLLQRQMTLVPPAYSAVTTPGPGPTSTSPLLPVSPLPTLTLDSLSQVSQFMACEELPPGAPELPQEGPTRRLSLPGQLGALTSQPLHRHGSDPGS

`O=C(CCc1ccccc1)c1ccccc1OCC(O)CN1CCN(C(c2ccccc2)(c2ccccc2)c2ccccc2)CC1` (stereo not shown) [FB213, 1-[2-(2-hydroxy-3-(4-tritylpiperazin-1-yl)-propoxy)phenyl]-3-phenylpropan-1-one]: the IC50 (usually the concentration at which inhibition is half-maximal) turned out to be 47.1 ± 5.1 µM.
